Results reported in patent publication US9822114B2, “Tricyclic oxazolidinone antibiotic compounds” (Idorsia Pharmaceuticals Ltd, priority 2008, dated 2017).

Tested on: M. catarrhalis A894
Assay: Minimal inhibitory concentration (MIC), microdilution method in cation-adjusted Mueller-Hinton Broth (CLSI M7-A7)
Format: cell-based
Conditions: strain A894; for MIC: Moraxella catarrhalis
Method: Minimal inhibitory concentrations (MICs; mg/1) were determined in cation-adjusted Mueller-Hinton Broth by a microdilution method following the description given in “Methods for Dilution Antimicrobial Susceptibility Tests for Bacteria that Grow Aerobically”, Approved standard, 7th ed., Clinical and Laboratory Standards Institute (CLSI) Document M7-A7, Wayne, Pa., USA, 2006.

| Molecule | MIC [µg/mL] | MIC for M. catarrhalis A894 |
| --- | --- | --- |
| O=C1CSc2ccc(N3C[C@@H](CCCN[C@@H]4Cn5c(=O)ccc6ccc(F)c4c65)OC3=O)cc2N1 [Example 128, (S)-9-fluoro-1-{3-[(R)-2-oxo-3-(3-oxo-3,4-dihydro-2H-benzo[1,4]thiazin-6-yl)-oxazolidin-5-yl]-propylamino}-1,2-dihydro-pyrrolo[3,2,1-ij]quinolin-4-one] | ≤ 0.031 | – |
| O=C1CSc2ccc(N3C[C@@H](CCCN(CCO)[C@@H]4Cn5c(=O)cnc6ccc(F)c4c65)OC3=O)cc2N1 [Example 66, (S)-7-fluoro-6-((2-hydroxy-ethyl)-{3-[(R)-2-oxo-3-(3-oxo-3,4-dihydro-2H-benzo[1,4]thiazin-6-yl)-oxazolidin-5-yl]-propyl}-amino)-5,6-dihydro-pyrrolo[1,2,3-de]quinoxalin-3-one] | ≤ 0.031 | – |
| O=C1CSc2ccc(N3C[C@H](CCCN[C@@H]4Cn5c(=O)ccc6cccc4c65)OC3=O)cc2N1 [Example 85, (S)-1-{3-[(S)-2-oxo-3-(3-oxo-3,4-dihydro-2H-benzo[1,4]thiazin-6-yl)-oxazolidin-5-yl]-propylamino}-1,2-dihydro-pyrrolo[3,2,1-ij]quinolin-4-one] | ≤ 0.031 | – |
| O=C1CSc2ccc(N3C[C@@H](CNCCC4Cn5c(=O)ccc6ccc(F)c4c65)OC3=O)cc2N1 (mixture of isomers) [Example 10, (1RS)-9-fluoro-1-(2-{[(R)-2-oxo-3-(3-oxo-3,4-dihydro-2H-benzo[1,4]thiazin-6-yl)-oxazolidin-5-ylmethyl]-amino}-ethyl)-1,2-dihydro-pyrrolo[3,2,1-ij]quinolin-4-one] | ≤ 0.031 | – |
| O=C1CSc2ccc(N3C[C@H](CNCCC4Cn5c(=O)ccc6ccc(F)c4c65)OC3=O)cc2N1 (mixture of isomers) [Example 8, (1RS)-9-fluoro-1-(2-{[(S)-2-oxo-3-(3-oxo-3,4-dihydro-2H-benzo[1,4]thiazin-6-yl)-oxazolidin-5-ylmethyl]-amino}-ethyl)-1,2-dihydro-pyrrolo[3,2,1-ij]quinolin-4-one] | ≤ 0.031 | – |
| O=C1CSc2ccc(N3C[C@@H](CCCNC4Cn5c(=O)cnc6cccc4c65)OC3=O)nc2N1 (mixture of isomers) [Example 115, (RS)-6-{3-[(R)-2-oxo-3-(3-oxo-3,4-dihydro-2H-pyrido[3,2-b][1,4]thiazin-6-yl)-oxazolidin-5-yl]-propylamino}-5,6-dihydro-pyrrolo[1,2,3-de]quinoxalin-3-one] | ≤ 0.031 | – |
| O=C1CSc2ccc(N3C[C@@H](CCN[C@@H]4Cn5c(=O)ccc6cccc4c65)OC3=O)cc2N1 [Example 87, (S)-1-{2-[(R)-2-oxo-3-(3-oxo-3,4-dihydro-2H-benzo[1,4]thiazin-6-yl)-oxazolidin-5-yl]-ethylamino}-1,2-dihydro-pyrrolo[3,2,1-ij]quinolin-4-one] | ≤ 0.031 | – |
| O=C1CSc2ccc(N3C[C@@H](CCCN[C@H]4Cn5c(=O)ccc6ncc(F)c4c65)OC3=O)cc2N1 [Example 138, (R)-3-fluoro-4-{3-[(R)-2-oxo-3-(3-oxo-3,4-dihydro-2H-benzo[1,4]thiazin-6-yl)-oxazolidin-5-yl]-propylamino}-4,5-dihydro-pyrrolo[3,2,1-de][1,5]naphthyridin-7-one] | ≤ 0.031 | – |
| O=C1CSc2ccc(N3C[C@H](CCCN[C@H]4Cn5c(=O)ccc6ncc(F)c4c65)OC3=O)nc2N1 [Example 143, (R)-3-fluoro-4-{3-[(S)-2-oxo-3-(3-oxo-3,4-dihydro-2H-pyrido[3,2-b][1,4]thiazin-6-yl)-oxazolidin-5-yl]-propylamino}-4,5-dihydro-pyrrolo[3,2,1-de][1,5]naphthyridin-7-one] | ≤ 0.031 | – |
| O=C1COc2ccc(N3C[C@H](CCCN[C@H]4Cn5c(=O)cnc6ccc(F)c4c65)OC3=O)nc2N1 [Example 131, (R)-7-fluoro-6-{3-[(S)-2-oxo-3-(3-oxo-3,4-dihydro-2H-pyrido[3,2-b][1,4]oxazin-6-yl)-oxazolidin-5-yl]-propylamino}-5,6-dihydro-pyrrolo[1,2,3-de]quinoxalin-3-one] | ≤ 0.031 | – |
| O=C1CSc2ccc(N3C[C@H](CCNCC4Cn5c(=O)ccc6ccc(F)c4c65)OC3=O)nc2N1 (mixture of isomers) [Example 198, (RS)-9-fluoro-1-({2-[(S)-2-oxo-3-(3-oxo-3,4-dihydro-2H-pyrido[3,2-b][1,4]thiazin-6-yl)-oxazolidin-5-yl]-ethylamino}-methyl)-1,2-dihydro-pyrrolo[3,2,1-ij]quinolin-4-one] | ≤ 0.031 | – |
| O=C1CSc2ccc(N3C[C@H](CCNCC4(O)Cn5c(=O)ccc6ccc(F)c4c65)OC3=O)cc2N1 (mixture of isomers) [Example 174, (RS)-9-fluoro-1-hydroxy-1-({2-[(S)-2-oxo-3-(3-oxo-3,4-dihydro-2H-benzo[1,4]thiazin-6-yl)-oxazolidin-5-yl]-ethylamino}-methyl)-1,2-dihydro-pyrrolo[3,2,1-ij]quinolin-4-one] | ≤ 0.031 | – |
| O=C1CSc2ccc(N3C[C@@H](CCNCC4Cn5c(=O)ccc6ccc(F)c4c65)OC3=O)cc2N1 (mixture of isomers) [Example 3, (1RS)-9-fluoro-1-({2-[(R)-2-oxo-3-(3-oxo-3,4-dihydro-2H-benzo[1,4]thiazin-6-yl)-oxazolidin-5-yl]-ethylamino}-methyl)-1,2-dihydro-pyrrolo[3,2,1-ij]quinolin-4-one] | ≤ 0.031 | – |
| Cc1ccc(N2C[C@@H](CNCCC3Cn4c(=O)ccc5ccc(F)c3c54)OC2=O)cc1F (mixture of isomers) [Example 11, (1RS)-9-fluoro-1-(2-{[(R)-3-(3-fluoro-4-methyl-phenyl)-2-oxo-oxazolidin-5-ylmethyl]-amino}-ethyl)-1,2-dihydro-pyrrolo[3,2,1-ij]quinolin-4-one] | 0.063 | – |
| Cc1ccc(N2C[C@@H](CNCC3Cn4c(=O)ccc5ccc(F)c3c54)OC2=O)cc1F (mixture of isomers) [Example 33, (1RS)-9-fluoro-1-({[(R)-3-(3-fluoro-4-methyl-phenyl)-2-oxo-oxazolidin-5-ylmethyl]-amino}-methyl)-1,2-dihydro-pyrrolo[3,2,1-ij]quinolin-4-one] | 16 | – |
| O=C1CSc2ccc(N3C[C@@H](CCCNC[C@@H]4Cn5c(=O)ccc6cccc4c65)OC3=O)cc2N1 (racemic) [Example 83, (RS)-1-({3-[(RS)-2-oxo-3-(3-oxo-3,4-dihydro-2H-benzo[1,4]thiazin-6-yl)-oxazolidin-5-yl]-propylamino}-methyl)-1,2-dihydro-pyrrolo[3,2,1-ij]quinolin-4-one] | ≤ 0.031 | – |
| O=C1COc2ccc(N3C[C@H](CCNCC4Cn5c(=O)cnc6cccc4c65)OC3=O)cc2N1 (mixture of isomers) [Example 154, (RS)-6-({2-[(S)-2-oxo-3-(3-oxo-3,4-dihydro-2H-benzo[1,4]oxazin-6-yl)-oxazolidin-5-yl]-ethylamino}-methyl)-5,6-dihydro-pyrrolo[1,2,3-de]quinoxalin-3-one] | ≤ 0.031 | – |
| (1R,2S)-2-methyl-1-{3-[(S)-2-oxo-3-(3-oxo-3,4-dihydro-2H-pyrido[3,2-b][1,4]thiazin-6-yl)-oxazolidin-5-yl]-propylamino}-1,2-dihydro-pyrrolo[3,2,1-ij]quinolin-4-one and (1S,2R)-2-methyl-1-{3-[(S)-2-oxo-3-(3-oxo-3,4-dihydro-2H-pyrido[3,2-b][1,4]thiazin-6-yl)-oxazolidin-5-yl]-propylamino}-1,2-dihydro-pyrrolo[3,2,1-ij]quinolin-4-one [Example 169] | – | ≦0.031 mg/l |
| O=C1CSc2ccc(N3C[C@H](CCCNC4Cn5c(=O)ccc6ccc(F)c4c65)OC3=O)nc2N1 (mixture of isomers) [Example 126, (RS)-9-fluoro-1-{3-[(S)-2-oxo-3-(3-oxo-3,4-dihydro-2H-pyrido[3,2-b][1,4]thiazin-6-yl)-oxazolidin-5-yl]-propylamino}-1,2-dihydro-pyrrolo[3,2,1-ij]quinolin-4-one] | ≤ 0.031 | – |
| O=C1CSc2ccc(N3C[C@@H](CCNCC4Cn5c(=O)cnc6cccc4c65)OC3=O)cc2N1 (mixture of isomers) [Example 156, (RS)-6-({2-[(R)-2-oxo-3-(3-oxo-3,4-dihydro-2H-benzo[1,4]thiazin-6-yl)-oxazolidin-5-yl]-ethylamino}-methyl)-5,6-dihydro-pyrrolo[1,2,3-de]quinoxalin-3-one] | ≤ 0.031 | – |
| O=C1CSc2ccc(N3C[C@H](CCNCC4CN5C(=O)CCc6ccc(F)c4c65)OC3=O)cc2N1 (mixture of isomers) [Example 29, (1RS)-9-fluoro-1-({2-[(S)-2-oxo-3-(3-oxo-3,4-dihydro-2H-benzo[1,4]thiazin-6-yl)-oxazolidin-5-yl]-ethylamino}-methyl)-1,2,5,6-tetrahydro-pyrrolo[3,2,1-ij]quinolin-4-one] | ≤ 0.031 | – |
| O=C1COc2ccc(N3C[C@@H](CCCNC4Cn5c(=O)cnc6cccc4c65)OC3=O)cc2N1 (mixture of isomers) [Example 21, (6RS)-6-{3-[(R)-2-oxo-3-(3-oxo-3,4-dihydro-2H-benzo[1,4]oxazin-6-yl)-oxazolidin-5-yl]-propylamino}-5,6-dihydro-pyrrolo[1,2,3-de]quinoxalin-3-one] | ≤ 0.031 | – |
| O=C1CSc2ccc(N3C[C@@H](CNCCC4CN5C(=O)CCc6ccc(F)c4c65)OC3=O)cc2N1 (mixture of isomers) [Example 24, (1RS)-9-fluoro-1-(2-{[(R)-2-oxo-3-(3-oxo-3,4-dihydro-2H-benzo[1,4]thiazin-6-yl)-oxazolidin-5-ylmethyl]-amino}-ethyl)-1,2,5,6-tetrahydro-pyrrolo[3,2,1-ij]quinolin-4-one] | ≤ 0.031 | – |
| O=C1CSc2ccc(N3C[C@H](CCCN[C@H]4Cn5c(=O)ccc6cccc4c65)OC3=O)cc2N1 [Example 133, (R)-1-{3-[(S)-2-oxo-3-(3-oxo-3,4-dihydro-2H-benzo[1,4]thiazin-6-yl)-oxazolidin-5-yl]-propylamino}-1,2-dihydro-pyrrolo[3,2,1-ij]quinolin-4-one] | ≤ 0.031 | – |
| O=C1COc2ccc(N3C[C@@H](CNCC4Cn5c(=O)ccc6ccc(F)c4c65)OC3=O)cc2N1 (mixture of isomers) [Example 32, (1RS)-9-fluoro-1-({[(R)-2-oxo-3-(3-oxo-3,4-dihydro-2H-benzo[1,4]oxazin-6-yl)-oxazolidin-5-ylmethyl]-amino}-methyl)-1,2-dihydro-pyrrolo[3,2,1-ij]quinolin-4-one] | 0.031 | – |
